Reference: US9914874B2, “Composite nanoparticles including a malonic acid derivative” (3M INNOVATIVE PROPERTIES COMPANY, priority 2013, dated 2018)

Assay: Solubility of the malonic acid derivative in toluene
Format: physicochemical
Settings: based on total weight of the solution

- solubility in toluene: greater than 1 weight percent
SMILES: CC(CC=C(C(=O)O)C(=O)O)CC(C)(C)C (stereo not shown) [Example 3, 2-(3,5,5-Trimethylhexylidene)propanedioic Acid]
